For this test, the target named is T1, CCR2 (Homo sapiens, UniProt P41597).
T1 construct: Membranes were prepared from THP-1 cells; endogenous in cells; host or cells: THP-1 (human acute monocytic leukaemia cells), membrane preparation
Put plainly: CCR2 receptor membrane binding assay ([125I]MCP-1, THP-1 membranes, SPA beads). Particulars: THP-1 cell membranes, [125I]MCP-1 displacement, bound radioactivity after 8 h; read-out: hKi. As to the method: The above exemplary substances have been tested for binding to CCR2 using a binding assay as outlined herein below:
THP-1 cells (human acute monocytic leukaemia cells) were cultured under standardized conditions at 37° C. and 5% CO2 in a humidified incubator. THP-1 cells were cultivated in RPMI 1640 medium (Gibco 21875) containing 1% MEM-NEAA (Gibso 11140) 2 mM L-glutamine, 1.5 g/L sodium bicarbonate, 4.5 g/L glucose, 10 mM HEPES and 1.0 mM sodium pyruvate, 90%; 10% fetal calf serum (FCS Gibco 10500-064).
Membranes were prepared from THP-1 cells. THP-1 cells were centrifuged at 300×g at 4° C. for 10 min. The cell pellet was resuspended in Phosphate Buffer Saline (PBS, including 10 μM Pefabloc and a protease inhibitor mix ‘complete’, Boehringer Mannheim (1 tablet/50 ml)), to a concentration of […]. The membrane preparation was performed by disrupting the cells by nitrogen […] (at 50 bar, for 1 h) in a “Nitrogen Bombe” (Parr Instrument). Cell debris was removed by centrifugation (800×g at 4° C., 1 min). The supernatant was centrifuged at 80000×g, 4° C. for 30 min to sediment the cell membranes. Usually 50 mg of protein (Bradford assay) were yielded from 1×10E9 cells. The membranes were resuspended in 25 mM HEPES, 25 mM MgCl2, 1 mM CaCl2, 10% Glycerine for storage in aliquots at −80° C. in 25 mM HEPES, 25 mM MgCl2, 1 mM CaCl2, 10% Glycerine and stored at −80° C.
Perkin Elmer NEX 332 Jod 125 MCP-1, Stock: 2200 Ci/mmol solved in 2000 μl assay buffer, stored at −20° C. THP-1 membrane were adjusted with 25 mM HEPES, pH 7.2; 5 mM MgCl2; 0.5 mM CaCl2; 0.2% BSA assay buffer to a concentration of 2.5 μg/15 μl. Amersham Biosciences PVT-WGA Beads (RPNQ0001) were adjusted with assay buffer to a concentration of 0.24 mg/30 μl. For preparation of the membrane-bead-suspension membranes and beads were incubated for 30 min at RT under rotation (60 rpm) with a ratio of 1:2. Test compounds dissolved in 100% DMSO to a concentration of 10 mM and are further diluted with 100% DMSO to 1 mM. All additional compound dilutions were obtained with assay buffer, final 1% DMSO. Compounds, membrane-bead-suspension and [125I]MCP-1 (ca. 25000 cpm/10 μl) were incubated. Bound radioactivity was determined by scintillation counter after 8 h. Determination of affinity of test compounds (dissociation constant hKi) is calculated by iterative fitting of experimental data using the “easy sys” program, which is based on law of mass action (Schittkowski K. (1994), Numerische Mathematik, Vol. 68, 129-142).

The structures appear in SMILES notation.

T1 sequence (P41597 whole entry): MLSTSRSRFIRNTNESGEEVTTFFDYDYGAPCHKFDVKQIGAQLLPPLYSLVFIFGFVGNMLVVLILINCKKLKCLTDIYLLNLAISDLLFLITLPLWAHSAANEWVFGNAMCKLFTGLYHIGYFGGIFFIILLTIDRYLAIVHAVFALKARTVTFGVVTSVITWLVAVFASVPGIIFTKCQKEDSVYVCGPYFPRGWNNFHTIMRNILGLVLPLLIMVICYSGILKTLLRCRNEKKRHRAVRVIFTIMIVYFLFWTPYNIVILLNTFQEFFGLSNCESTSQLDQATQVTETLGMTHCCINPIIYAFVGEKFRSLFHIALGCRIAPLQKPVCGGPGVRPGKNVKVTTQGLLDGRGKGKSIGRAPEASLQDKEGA

In the case of `COC1COCCC1NC1CCN(C(=O)c2ncnc(Oc3cccc(C(F)(F)F)c3)c2C)CC1` (stereo not shown) [Example 1], the Ki was determined as 278 nM. `COC1COCCC1NC1CCN(C(=O)c2ncnc(OCc3ccc(C(C)(C)C)cc3)c2C)CC1` (stereo not shown) [Example 2]: the Ki came to 21 nM. The figure for `COC1COCCC1NC1CCN(C(=O)c2ncnc(OCc3ccc(Cl)c(Cl)c3)c2C)CC1` (stereo not shown) [Example 2a] is 8 nM; for `COC1COCCC1NC1CCN(C(=O)c2ncnc(OCc3ccc(C(F)(F)F)c(Cl)c3)c2C)CC1` (stereo not shown) [Example 2b] it is 8 nM.

Take `COC1COCCC1NC1CCN(C(=O)c2ncnc(OCc3cc(Cl)cc(Cl)c3)c2C)CC1` (stereo not shown) [Example 2c]: the Ki worked out at 18 nM. Take `CO[C@@H]1COCC[C@@H]1NC1CCN(C(=O)c2ncnc(OCc3ccc(Cl)c(Cl)c3)c2C)CC1` [Example 2d]: the Ki worked out at 12 nM. As to `CO[C@H]1COCC[C@H]1NC1CCN(C(=O)c2ncnc(OC[C@H]3CCC[C@@H](c4ccc(OC(F)(F)F)cc4)O3)c2C)CC1` [Example 3], the Ki came out at 45 nM. For the compound `CO[C@@H]1COCC[C@@H]1NC1CCN(C(=O)c2nccc(OCc3ccc(C(C)(C)C)cc3)c2C)CC1` [Example 3a], the Ki turned out to be 23 nM.

With `CO[C@H]1COCC[C@H]1NC1CCN(C(=O)c2nccc(OCc3ccc(C(C)(C)C)cc3)c2C)CC1` [Example 3b], the Ki was 108 nM. In the case of `COc1nc(OCc2ccc(C(F)(F)F)cc2)c(C)c(C(=O)N2CCC(N[C@@H]3CCOC[C@@H]3OC)CC2)n1` [Example 3c], the Ki worked out at 14 nM. Consider `COc1nc(OCc2ccc(C(F)(F)F)cc2)c(C)c(C(=O)N2CCC(N[C@H]3CCOC[C@H]3OC)CC2)n1` [Example 3d], for which the Ki came out at 4 nM. The same measure for `CO[C@H]1COCC[C@H]1NC1CCN(C(=O)c2nc(C(F)(F)F)nc(OCc3ccc(C(C)(C)C)cc3)c2C)CC1` [Example 3e]: 9 nM. The same measure for `CO[C@@H]1COCC[C@@H]1NC1CCN(C(=O)c2nc(C(F)(F)F)nc(OCc3ccc(C(C)(C)C)cc3)c2C)CC1` [Example 3f]: 7 nM; for `COc1nc(OCc2ccc(C(C)(C)C)cc2)c(C)c(C(=O)N2CCC(N[C@H]3CCOC[C@H]3OC)CC2)n1` [Example 3g]: 2 nM; for `COc1nc(OCc2cccc(C(F)(F)F)c2)c(C)c(C(=O)N2CCC(N[C@H]3CCOC[C@H]3OC)CC2)n1` [Example 3h]: 18 nM. `COc1nc(OCc2ccc(C(C)(C)C)cc2)c(C)c(C(=O)N2CCC(N[C@@H]3CCOC[C@@H]3OC)CC2)n1` [Example 3i]: the Ki was 4 nM.

On to `COc1nc(OCc2ccc(C(F)(F)F)c(Cl)c2)c(C)c(C(=O)N2CCC(N[C@H]3CCOC[C@H]3OC)CC2)n1` [Example 3j], for which the Ki was found to be 3 nM.

For the compound `COc1nc(OCc2ccc(C(F)(F)F)c(Cl)c2)c(C)c(C(=O)N2CCC(N[C@@H]3CCOC[C@@H]3OC)CC2)n1` [Example 3k], the Ki amounted to 8 nM.

Turning to `COc1nc(OCc2ccc(Cl)c(F)c2)c(C)c(C(=O)N2CCC(N[C@H]3CCOC[C@H]3OC)CC2)n1` [Example 3l], the Ki was found to be 8 nM. The same measure for `COc1nc(OCc2ccc(Cl)c(Cl)c2)c(C)c(C(=O)N2CCC(N[C@H]3CCOC[C@H]3OC)CC2)n1` [Example 3m]: 10 nM; for `CO[C@@H]1COCC[C@@H]1NC1CCN(C(=O)c2nc(C(F)(F)F)nc(OCc3ccc(Cl)c(Cl)c3)c2C)CC1` [Example 3n]: 16 nM.

In the case of `CO[C@@H]1COCC[C@@H]1NC1CCN(C(=O)c2nc(C(F)(F)F)nc(OCc3cc(Cl)cc(Cl)c3)c2C)CC1` [Example 3o], the Ki was determined as 18 nM.
